What was measured:
[1] = Multiple-dose pharmacokinetics in rats; type: in vivo, Sprague Dawley rats
Protocol: (§1) The optimal volume and activity in unit volume of enzyme solution [0.2 M acetic acid/water solution: 0.2 M ammonium acetate/water solution, 15:35 (v/v)] were determined through a pretest of the enzyme (rat plasma, 10 μl, 10 U μl^-1; dog plasma, 10 μl, 10 U μl^-1; human plasma, 20 μl, 20 U μl^-1; human urine, 10 μl, 10 U μl^-1). After enzyme incubation, 10 μl of IS solution was added to the plasma and urine samples (2 μg ml^-1 quercetin 3-β-D-glucoside for rat and dog plasma; 583 ng ml^-1 naringin-D4 and 160 ng ml^-1 naringenin-D4 for human plasma; and 9,710 ng ml^-1 naringin-D4 and 6,000 ng ml^-1 naringenin-D4 for human urine). To each fecal sample, 9-fold methanol-normal saline (2:1, v/v) was added, mixed (18,000 rpm, 15 min) by vortexing and centrifuged (10 min, 9,000 rpm, 4°C). Next, 10 μl IS solution (971 ng ml^-1 naringin-D4 and 600 ng ml^-1 naringenin-D4) was added to the supernatants of feces (200 μl) without enzyme incubation. […] The solid material was dissolved with acetonitrile-water (1:1, v/v) and injected into the ultra high-performance liquid chromatography coupled with triple quadrupole mass spectrometry (UHPLC/MS/MS) system as described below. The analysis of nonclinical and clinical samples was performed with a UHPLC/MS/MS system that consisted of a Shimadzu Nexera X2 ultra high-performance liquid chromatography (UHPLC) (Shimadzu Corp., Kyoto, Japan) coupled with an AB Sciex API4000 triple-quadrupole mass spectrometry (MS/MS) system (AB Sciex, Foster City, CA, USA) equipped with an electrospray ionization source and controlled by Analyst (v. 1.6.2) software. […] The injection volume was 10 μl with the flow rate of 0.3 ml min^-1 for plasma, and 0.4 ml min^-1 for urine and feces. The compounds were detected by multiple reaction monitoring in the negative ion electrospray mode. The electrospray source conditions were as follows: ion source gas1 30 psi, ion source gas2 60 psi, curtain gas 20 psi, collisionally activated dissociation (CAD) gas 8 psi, temperature 500°C, and ion spray voltage −4,500 V. Zero air was used for ion source gas1 and ion source gas2 and nitrogen for curtain gas and CAD gas. […] All pharmacokinetic and excretion parameters were expressed as mean ± standard deviation (SD). All mean and SD values were reported to three significant figures. The pharmacokinetic parameters were calculated using the Phoenix WinNonlin software (Version 6.4, Pharsight Corp., Cary, NC, USA) and compared using the Student's t-test (p < 0.05) in SPSS 18.0 (SPSS Inc., Chicago, IL, USA). […] For the multiple-dose studies, pharmacokinetic parameters included the mean plasma level at steady state, Tmax, t1/2, the percent fluctuation, and the accumulation index (Table 3). […] In addition, we compared the pharmacokinetic parameters obtained from males and females (Tables 4–6).

[2] = Multiple-dose pharmacokinetics in healthy humans; type: in vivo, human
Protocol: as §1, with “Naringin and placebo tablets were identical in appearance and participants, care providers, and those assessing outcomes were blinded to the study drug assignment. Using the Statistical Analysis System (SAS) software (Version 9.4, SAS Institute Inc., Cary, NC, USA), subject randomization and blinding/masking were performed by statisticians from the Department of Health Statistics at the Second Military Medical University. […] Human urine samples were collected at −12~0, 0~4, 4~8, 8~12, 12~24, 24~36, 36~48, 48~60, and 60~72 h for the single-dose groups and −12~0 (Day1), −12~0 (Day7), 0~4, 4~8, 8~12, 12~24, 24~36, 36~48, 48~60, and 60~72 h (Day7) for the multiple-dose group with records of volume. Human feces were collected in storage boxes, weighed, and recorded from 12 h before administration to 72 h postadministration. […] The optimal” for “The optimal”

[3] = naringin 42 mg kg^-1 multiple dose, rat, female
[4] = naringin 42 mg kg^-1 multiple dose, rat, male
[5] = naringin 42 mg kg^-1 p.o. three times a day, multiple dose, rat
[6] = naringin 160 mg multiple dose, human, female
[7] = naringin 160 mg multiple dose, human, male
[8] = naringin 160 mg p.o. three times a day, multiple dose, human

accumulation in multiple-dose study ([1]; rat, in vivo) | accumulation in multiple-dose study ([2]; in vivo) | Tmax [2, 8] [h] | SMILES | CavSS [1, 3] [ng/mL] | CavSS [1, 4] [ng/mL] | CavSS [1, 5] [ng/mL] | CavSS [2, 6] [ng/mL] | CavSS [2, 7] [ng/mL] | CavSS [2, 8] [ng/mL] | Fluctuation [1, 3] [%] | Fluctuation [1, 4] | Fluctuation ([1]; naringin 42 mg kg^-1 p.o. three times a day, multiple dose, rat, (CmaxSS−CminSS)/CavSS×100%) [%] | accumulation in multiple-dose study ([1]; rats) | accumulation in multiple-dose study ([2]; humans) | Fluctuation [2, 6] [%] | Fluctuation [2, 7] [%] | Fluctuation ([2]; naringin 160 mg p.o. three times a day, multiple dose, human, (CmaxSS−CminSS)/CavSS×100%) [%]
no significant accumulation | no significant accumulation | 5.83 ± 1.17 | O=C1C[C@@H](c2ccc(O)cc2)Oc2cc(O)cc(O)c21 [naringenin, Naringenin] | 600 ± 517 | 178 ± 90.8 | 389 ± 415 | 22.6 ± 8.42 | 47.2 ± 47 | 39 ± 38.7 | – | – | – | – | – | – | – | –
– | – | – | C[C@@H]1O[C@@H](O[C@H]2[C@H](Oc3cc(O)c4c(c3)O[C@H](c3ccc(O)cc3)CC4=O)O[C@H](CO)[C@@H](O)[C@@H]2O)[C@H](O)[C@H](O)[C@H]1O [naringin, Naringin] | 17.4 ± 19.9 | 6.03 ± 9.48 | 11.7 ± 15.9 | 1.74 ± 0.377 | 1.75 ± 0.403 | 1.75 ± 0.365 | 612 ± 233 | 844 ± 1,030% | 728 ± 711 | no significant accumulation | no significant accumulation | 149 ± 37.5 | 210 ± 79.6 | 187 ± 70.7

Source: publication PMC7118210 (Frontiers in Pharmacology, 2020)
